Measured values published in patent US7871982B2, “Lincomycin derivatives and antimicrobial agents comprising the same as active ingredient” (Meiji Seika Kaisha, Ltd., priority 2005, dated 2011).
Values after ≈ are worked out from the molar mass of the structure shown.

Key:
Assay in all cases: Antimicrobial activity, MIC against pneumococci (agar dilution)
Format in all cases: cell-based
S. pneumoniae DPI Type[…] = details: for minimal inhibitory concentration (MIC): S. pneumoniae DPI Type[…], sensitivity disk agar-N+5% horse blood, inoculum 10^6 CFU/ml; for MIC: Streptococcus pneumoniae, read-out: minimal inhibitory concentration (MIC)
Procedure: (§1) For representative compounds among lincomycin derivatives according to the present invention, the minimal inhibitory concentration (MIC, μg/ml) against various pneumococci was measured according to the method described in CHEMOTHERAPY, vol. 16, No. 1, 99, 1968. Sensitivity disk agar-N+5% horse blood was used as the medium for the measurement. The amount of bacteria inoculated was 10^6 CFU/ml.

S. pneumoniae TH-96 = details: inoculum 10^6 CFU/ml; for minimal inhibitory concentration (MIC): sensitivity disk agar-N+5% horse blood; for MIC: Streptococcus pneumoniae, TH96, sensitivity disk agar-N+5% horse blood, read-out: minimal inhibitory concentration (MIC)
Procedure: as §1

S. pneumoniae 1820 = details: sensitivity disk agar-N+5% horse blood, inoculum 10^6 CFU/ml; for MIC: Streptococcus pneumoniae, read-out: minimal inhibitory concentration (MIC)
Procedure: as §1

S. pneumoniae 225 = details: sensitivity disk agar-N+5% horse blood, inoculum 10^6 CFU/ml; for MIC: Streptococcus pneumoniae, read-out: minimal inhibitory concentration (MIC)
Procedure: as §1

S. pneumoniae PRC-206 = details: inoculum 10^6 CFU/ml; for minimal inhibitory concentration (MIC): sensitivity disk agar-N+5% horse blood; for MIC: Streptococcus pneumoniae, PRC206, sensitivity disk agar-N+5% horse blood, read-out: minimal inhibitory concentration (MIC)
Procedure: as §1

S. pneumoniae IP692 = details: sensitivity disk agar-N+5% horse blood, inoculum 10^6 CFU/ml; for MIC: Streptococcus pneumoniae, read-out: minimal inhibitory concentration (MIC)
Procedure: as §1

S. pneumoniae PRC-53 = details: inoculum 10^6 CFU/ml; for minimal inhibitory concentration (MIC): sensitivity disk agar-N+5% horse blood; for MIC: Streptococcus pneumoniae, PRC53, sensitivity disk agar-N+5% horse blood, read-out: minimal inhibitory concentration (MIC)
Procedure: as §1

S. pneumoniae PRC0-91 = details: inoculum 10^6 CFU/ml; for minimal inhibitory concentration (MIC): sensitivity disk agar-N+5% horse blood
Procedure: as §1

S. pneumoniae TH-662 = details: inoculum 10^6 CFU/ml; for minimal inhibitory concentration (MIC): sensitivity disk agar-N+5% horse blood; for MIC: Streptococcus pneumoniae, TH662, sensitivity disk agar-N+5% horse blood, read-out: minimal inhibitory concentration (MIC)
Procedure: as §1

S. pneumoniae 1913 = details: sensitivity disk agar-N+5% horse blood, inoculum 10^6 CFU/ml; for MIC: Streptococcus pneumoniae, read-out: minimal inhibitory concentration (MIC)
Procedure: as §1

## CCCC1CC(C(=O)NC(C(C)Sc2nnc(NC(=O)COC)s2)C2OC(SC)C(O)C(O)C2O)N(C)C1 (stereo not drawn) [Compound 195, 7-Deoxy-7-epi-7-(5-(2-methoxyacetamido)-1,3,4-thiadiazol-2-ylthio)lincomycin]
S. pneumoniae DPI Type[…]
  minimal inhibitory concentration (MIC): 0.06 µg/mL (≈ 0.101 µM)
S. pneumoniae TH-96
  minimal inhibitory concentration (MIC): 0.06 µg/mL (≈ 0.101 µM)
S. pneumoniae 1820
  minimal inhibitory concentration (MIC): 16 µg/mL (≈ 26.9 µM)
S. pneumoniae 225
  minimal inhibitory concentration (MIC): 64 µg/mL (≈ 108 µM)
S. pneumoniae PRC-206
  minimal inhibitory concentration (MIC): 64 µg/mL (≈ 108 µM)
S. pneumoniae IP692
  minimal inhibitory concentration (MIC): 0.03 µg/mL (≈ 0.0505 µM)
S. pneumoniae PRC-53
  minimal inhibitory concentration (MIC): 0.06 µg/mL (≈ 0.101 µM)
S. pneumoniae PRC0-91
  minimal inhibitory concentration (MIC): 8 µg/mL (≈ 13.5 µM)
S. pneumoniae TH-662
  minimal inhibitory concentration (MIC): 8 µg/mL (≈ 13.5 µM)
S. pneumoniae 1913
  minimal inhibitory concentration (MIC): 0.13 µg/mL (≈ 0.219 µM)

## CCC[C@@H]1CCN[C@H](C(=O)N[C@@H]([C@H]2O[C@H](SC)[C@H](O)[C@@H](O)[C@H]2O)[C@H](C)Sc2ncc(C(=O)OCC)c(N)n2)C1 [Compound 364, Methyl 7-(4-amino-5-ethoxycarbonylpyrimidin-2-ylthio)-7-deoxy-7-epi-6-N-((2S,4R)-4-propyl)pipecoloyl-1-thio-α-lincosamide]
S. pneumoniae DPI Type[…]
  minimal inhibitory concentration (MIC): 0.13 µg/mL (≈ 0.221 µM)
S. pneumoniae TH-96
  minimal inhibitory concentration (MIC): 0.06 µg/mL (≈ 0.102 µM)
S. pneumoniae 1820
  minimal inhibitory concentration (MIC): 4 µg/mL (≈ 6.81 µM)
S. pneumoniae 225
  minimal inhibitory concentration (MIC): 4 µg/mL (≈ 6.81 µM)
S. pneumoniae PRC-206
  minimal inhibitory concentration (MIC): 4 µg/mL (≈ 6.81 µM)
S. pneumoniae IP692
  minimal inhibitory concentration (MIC): 0.13 µg/mL (≈ 0.221 µM)
S. pneumoniae PRC-53
  minimal inhibitory concentration (MIC): 0.03 µg/mL (≈ 0.051 µM)
S. pneumoniae TH-662
  minimal inhibitory concentration (MIC): 2 µg/mL (≈ 3.4 µM)
S. pneumoniae 1913
  minimal inhibitory concentration (MIC): 0.13 µg/mL (≈ 0.221 µM)

## CCCC1CC(C(=O)NC(C(C)Sc2ccc(N(C)C(=O)COC)cc2)C2OC(SC)C(O)C(O)C2O)N(C)C1 (stereo not drawn) [Compound 170, 7-Deoxy-7-epi-7-(4-(methoxy-N-methylacetamido)phenylthio)-lincomycin]
S. pneumoniae DPI Type[…]
  minimal inhibitory concentration (MIC): 0.13 µg/mL (≈ 0.217 µM)
S. pneumoniae TH-96
  minimal inhibitory concentration (MIC): 0.13 µg/mL (≈ 0.217 µM)
S. pneumoniae 1820
  minimal inhibitory concentration (MIC): 8 µg/mL (≈ 13.3 µM)
S. pneumoniae 225
  minimal inhibitory concentration (MIC): 128 µg/mL (≈ 213 µM)
S. pneumoniae PRC-206
  minimal inhibitory concentration (MIC): 16 µg/mL (≈ 26.7 µM)
S. pneumoniae IP692
  minimal inhibitory concentration (MIC): 0.13 µg/mL (≈ 0.217 µM)
S. pneumoniae PRC-53
  minimal inhibitory concentration (MIC): 0.13 µg/mL (≈ 0.217 µM)
S. pneumoniae PRC0-91
  minimal inhibitory concentration (MIC): 8 µg/mL (≈ 13.3 µM)
S. pneumoniae TH-662
  minimal inhibitory concentration (MIC): 8 µg/mL (≈ 13.3 µM)
S. pneumoniae 1913
  minimal inhibitory concentration (MIC): 0.13 µg/mL (≈ 0.217 µM)

## CCC[C@@H]1C[C@@H](C(=O)N[C@@H]([C@H]2O[C@H](SC)[C@H](O)[C@@H](O)[C@H]2O)[C@H](C)Sc2ccc(C(=O)N3CCCC3)cc2)N(C)C1 [Compound 228, 7-Deoxy-7-epi-7-(4-(pyrrolidino-carbonyl)phenylthio)lincomycin]
S. pneumoniae DPI Type[…]
  minimal inhibitory concentration (MIC): 0.13 µg/mL (≈ 0.218 µM)
S. pneumoniae 1820
  minimal inhibitory concentration (MIC): 4 µg/mL (≈ 6.71 µM)
S. pneumoniae 225
  minimal inhibitory concentration (MIC): 16 µg/mL (≈ 26.9 µM)
S. pneumoniae PRC-206
  minimal inhibitory concentration (MIC): 4 µg/mL (≈ 6.71 µM)
S. pneumoniae IP692
  minimal inhibitory concentration (MIC): 0.06 µg/mL (≈ 0.101 µM)
S. pneumoniae PRC-53
  minimal inhibitory concentration (MIC): 0.06 µg/mL (≈ 0.101 µM)
S. pneumoniae PRC0-91
  minimal inhibitory concentration (MIC): 2 µg/mL (≈ 3.36 µM)
S. pneumoniae TH-662
  minimal inhibitory concentration (MIC): 2 µg/mL (≈ 3.36 µM)
S. pneumoniae 1913
  minimal inhibitory concentration (MIC): 0.13 µg/mL (≈ 0.218 µM)

## CCC[C@@H]1C[C@@H](C(=O)N[C@@H](C2OC(SC)C(O)C(O)C2O)[C@H](C)SCc2ccc(C(=O)N3CCCCC3)cc2)N(C)C1 (stereo partly drawn) [Compound 235, 7-Deoxy-7-epi-7-(4-(piperidino-carbonyl)benzylthio)lincomycin]
S. pneumoniae DPI Type[…]
  MIC: 0.015 µg/mL (≈ 0.024 µM)
S. pneumoniae TH-96
  MIC: 0.03 µg/mL (≈ 0.0481 µM)
S. pneumoniae 1820
  MIC: 8 µg/mL (≈ 12.8 µM)
S. pneumoniae 225
  MIC: 32 µg/mL (≈ 51.3 µM)
S. pneumoniae PRC-206
  MIC: 4 µg/mL (≈ 6.41 µM)
S. pneumoniae IP692
  MIC: 0.015 µg/mL (≈ 0.024 µM)
S. pneumoniae PRC-53
  MIC: 0.03 µg/mL (≈ 0.0481 µM)
S. pneumoniae TH-662
  MIC: 1 µg/mL (≈ 1.6 µM)
S. pneumoniae 1913
  MIC: 0.03 µg/mL (≈ 0.0481 µM)

## CCC[C@@H]1C[C@@H](C(=O)N[C@@H]([C@H]2O[C@H](SC)[C@H](O)[C@@H](O)[C@H]2O)[C@H](C)Sc2ccc(NC(=O)CC)cn2)N(C)C1 [Compound 191, 7-Deoxy-7-epi-7-(5-(propionamido)pyridin-2-ylthio)-lincomycin]
S. pneumoniae DPI Type[…]
  minimal inhibitory concentration (MIC): 0.015 µg/mL (≈ 0.0263 µM)
S. pneumoniae TH-96
  minimal inhibitory concentration (MIC): 0.03 µg/mL (≈ 0.0526 µM)
S. pneumoniae 1820
  minimal inhibitory concentration (MIC): 4 µg/mL (≈ 7.01 µM)
S. pneumoniae 225
  minimal inhibitory concentration (MIC): 32 µg/mL (≈ 56.1 µM)
S. pneumoniae PRC-206
  minimal inhibitory concentration (MIC): 8 µg/mL (≈ 14 µM)
S. pneumoniae IP692
  minimal inhibitory concentration (MIC): 0.015 µg/mL (≈ 0.0263 µM)
S. pneumoniae PRC-53
  minimal inhibitory concentration (MIC): 0.03 µg/mL (≈ 0.0526 µM)
S. pneumoniae PRC0-91
  minimal inhibitory concentration (MIC): 2 µg/mL (≈ 3.5 µM)
S. pneumoniae 1913
  minimal inhibitory concentration (MIC): 0.015 µg/mL (≈ 0.0263 µM)

## CCC[C@@H]1C[C@@H](C(=O)N[C@H](C2OC(SC)C(O)C(O)C2O)[C@@H](C)Sc2ccc(-c3cccnc3[N+](=O)[O-])cc2)N(C)C1 (stereo partly drawn) [Compound 446, 7-Deoxy-7-epi-7-(4-(2-nitropyridin-3-yl)phenylthio)-lincomycin]
S. pneumoniae DPI Type[…]
  MIC: 0.03 µg/mL (≈ 0.0483 µM)
S. pneumoniae TH-96
  MIC: 0.015 µg/mL (≈ 0.0242 µM)
S. pneumoniae 1820
  MIC: 4 µg/mL (≈ 6.44 µM)
S. pneumoniae 225
  MIC: 64 µg/mL (≈ 103 µM)
S. pneumoniae PRC-206
  MIC: 8 µg/mL (≈ 12.9 µM)
S. pneumoniae IP692
  MIC: 0.03 µg/mL (≈ 0.0483 µM)
S. pneumoniae PRC-53
  MIC: 0.015 µg/mL (≈ 0.0242 µM)
S. pneumoniae PRC0-91; Streptococcus pneumoniae, PRC091, sensitivity disk agar-N+5% horse blood, read-out: minimal inhibitory concentration (MIC)
  MIC: 4 µg/mL (≈ 6.44 µM)
S. pneumoniae TH-662
  MIC: 2 µg/mL (≈ 3.22 µM)
S. pneumoniae 1913
  MIC: 0.03 µg/mL (≈ 0.0483 µM)

## CCC[C@H]1CN[C@H](C(=O)N[C@@H]([C@H]2O[C@H](SC)[C@H](O)[C@@H](O)[C@H]2O)[C@H](C)Sc2nnc(-c3sccc3N)s2)C1 [Compound 304, 7-(5-(3-Aminothiophen-2-yl)-1,3,4-thiadiazol-2-ylthio)-1′-demethyl-7-deoxy-7-epilincomycin]
S. pneumoniae DPI Type[…]
  minimal inhibitory concentration (MIC): 0.13 µg/mL (≈ 0.22 µM)
S. pneumoniae TH-96
  minimal inhibitory concentration (MIC): 0.13 µg/mL (≈ 0.22 µM)
S. pneumoniae 1820
  minimal inhibitory concentration (MIC): 4 µg/mL (≈ 6.78 µM)
S. pneumoniae 225
  minimal inhibitory concentration (MIC): 16 µg/mL (≈ 27.1 µM)
S. pneumoniae PRC-206
  minimal inhibitory concentration (MIC): 4 µg/mL (≈ 6.78 µM)
S. pneumoniae IP692
  minimal inhibitory concentration (MIC): 0.13 µg/mL (≈ 0.22 µM)
S. pneumoniae PRC-53
  minimal inhibitory concentration (MIC): 0.13 µg/mL (≈ 0.22 µM)
S. pneumoniae PRC0-91
  minimal inhibitory concentration (MIC): 2 µg/mL (≈ 3.39 µM)
S. pneumoniae TH-662
  minimal inhibitory concentration (MIC): 2 µg/mL (≈ 3.39 µM)
S. pneumoniae 1913
  minimal inhibitory concentration (MIC): 0.13 µg/mL (≈ 0.22 µM)

## CC[C@@H]1CCN(C)[C@H](C(=O)N[C@@H]([C@H]2O[C@H](SC)[C@H](O)[C@@H](O)[C@H]2O)[C@H](C)Sc2nnc(-c3ccc(F)cc3[N+](=O)[O-])s2)C1 [Compound 396, Methyl 7-deoxy-7-epi-7-(5-(4-fluoro-2-nitrophenyl)-1,3,4-thiadiazol-2-ylthio)-6-N-((2S,4R)-1-N-methyl-4-ethyl)pipecoloyl-1-thio-α-lincosamide]
S. pneumoniae DPI Type[…]
  minimal inhibitory concentration (MIC): 0.015 µg/mL (≈ 0.0232 µM)
S. pneumoniae TH-96
  minimal inhibitory concentration (MIC): 0.015 µg/mL (≈ 0.0232 µM)
S. pneumoniae 1820
  minimal inhibitory concentration (MIC): 16 µg/mL (≈ 24.8 µM)
S. pneumoniae 225
  minimal inhibitory concentration (MIC): >128 µg/mL
S. pneumoniae PRC-206
  minimal inhibitory concentration (MIC): 64 µg/mL (≈ 99.1 µM)
S. pneumoniae IP692
  minimal inhibitory concentration (MIC): 0.008 µg/mL (≈ 0.0124 µM)
S. pneumoniae PRC-53
  minimal inhibitory concentration (MIC): 0.015 µg/mL (≈ 0.0232 µM)
S. pneumoniae PRC0-91
  minimal inhibitory concentration (MIC): 4 µg/mL (≈ 6.19 µM)
S. pneumoniae TH-662
  minimal inhibitory concentration (MIC): 8 µg/mL (≈ 12.4 µM)
S. pneumoniae 1913
  minimal inhibitory concentration (MIC): 0.008 µg/mL (≈ 0.0124 µM)
